Each compound was assayed against T1, Coagulation factor X (Homo sapiens, UniProt P00742) (assay: Binding affinity against the coagulation factor X).
T1 sequence (P00742 41-179 limits assumed): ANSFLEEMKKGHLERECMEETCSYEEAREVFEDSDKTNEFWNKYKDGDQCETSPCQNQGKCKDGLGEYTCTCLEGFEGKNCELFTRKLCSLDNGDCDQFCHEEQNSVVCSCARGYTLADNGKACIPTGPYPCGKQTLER
T1 sequence (P00742 235-488 limits assumed): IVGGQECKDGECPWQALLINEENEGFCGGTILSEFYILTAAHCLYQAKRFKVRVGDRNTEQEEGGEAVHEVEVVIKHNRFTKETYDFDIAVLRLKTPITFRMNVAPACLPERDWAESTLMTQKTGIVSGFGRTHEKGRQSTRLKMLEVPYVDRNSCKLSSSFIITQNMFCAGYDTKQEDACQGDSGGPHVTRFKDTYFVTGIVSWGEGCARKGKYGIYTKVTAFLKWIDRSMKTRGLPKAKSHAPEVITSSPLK

`NS(=O)(=O)c1ccccc1-c1ccc(NC(=O)C2CC(c3cccc(F)c3)=NO2)cc1` (configuration not stated) and `NS(=O)(=O)c1ccccc1-c1ccc(NC(=O)C2CC(c3cccc(Cl)c3)=NO2)cc1` (configuration not stated) are within 1.5-fold of each other in Ki: 7.8 µM for the first, 5.9 µM for the second.

Compared with `NS(=O)(=O)c1ccccc1-c1ccc(NC(=O)C2CC(c3ccc(F)c(F)c3)=NO2)cc1` (configuration not stated), `NS(=O)(=O)c1ccccc1-c1ccc(NC(=O)C2CC(c3ccc(Cl)cc3)=NO2)cc1` (configuration not stated) is 4.6-fold lower in Ki: 4.6 µM for the first, 1 µM for the second.

Going from `NS(=O)(=O)c1ccccc1-c1ccc(NC(=O)C2CC(c3ccc(I)cc3)=NO2)cc1` (configuration not stated) to `NS(=O)(=O)c1ccccc1-c1ccc(NC(=O)C2CC(c3ccc(Br)cc3)=NO2)cc1` (configuration not stated), the Ki rises from 1.9 µM to 4.1 µM (2.2-fold). The first binds more tightly here.

Compared with `COc1cccc(C2=NOC(C(=O)Nc3ccc(-c4ccccc4S(N)(=O)=O)cc3)C2)c1` (configuration not stated), `CCCCCC1=NOC(C(=O)Nc2ccc(-c3ccccc3S(N)(=O)=O)cc2)C1` (configuration not stated) is 1.7-fold lower in Ki: 7.5 µM for the first, 4.5 µM for the second.

These compounds were tested against T1, Coagulation factor X (assay: Binding affinity against Coagulation factor X).

`Nc1cc(C2=NOC(C(=O)Nc3ccc(-c4ccccc4S(N)(=O)=O)cc3)C2)ccc1Cl` (configuration not stated) showed a Ki of 0.13 µM.

These compounds were tested against T1, Coagulation factor X (assay: Binding affinity against the Factor Xa (FXa)).

Going from `NS(=O)(=O)c1ccccc1-c1ccc(NC(=O)C2CC(c3ccc(-c4ccccc4)cc3)=NO2)cc1` (configuration not stated) to `NS(=O)(=O)c1ccccc1-c1ccc(NC(=O)C2CC(c3ccccc3)=NO2)cc1` (configuration not stated), the Ki rises from 1.1 µM to 11 µM (10-fold). The first binds more tightly here.

`NS(=O)(=O)c1ccccc1-c1ccc(NC(=O)C2CC(c3ccc(Cl)c(F)c3)=NO2)cc1` (configuration not stated) and `NS(=O)(=O)c1ccccc1-c1ccc(NC(=O)C2CC(c3ccc(Cl)c(Cl)c3)=NO2)cc1` (configuration not stated) are within 1.5-fold of each other in Ki: 2.5 µM for the first, 2.7 µM for the second.

`COc1cc(C2=NOC(C(=O)Nc3ccc(-c4ccccc4S(N)(=O)=O)cc3)C2)ccc1O` (configuration not stated) and `NS(=O)(=O)c1ccccc1-c1ccc(NC(=O)C2CC(c3cccc(O)c3)=NO2)cc1` (configuration not stated) cannot be ordered by Ki: 20 µM for the first, greater than 3 µM for the second.

`CCCCCCOc1ccccc1C1=NOC(C(=O)Nc2ccc(-c3ccccc3S(N)(=O)=O)cc2)C1` (configuration not stated) and `NS(=O)(=O)c1ccccc1-c1ccc(NC(=O)C2CC(c3ccccc3Cl)=NO2)cc1` (configuration not stated) are within 1.5-fold of each other in Ki: 1.8 µM for the first, 1.7 µM for the second.

First: CCCCCCCCCCC1=NOC(C(=O)Nc2ccc(-c3ccccc3S(N)(=O)=O)cc2)C1 (configuration not stated)
Second: NS(=O)(=O)c1ccccc1-c1ccc(NC(=O)C2CC(CCc3ccccc3)=NO2)cc1 (configuration not stated)
The Ki of the first is lower: 17 µM for the first, greater than 30 µM for the second. The first binds more tightly here.

`NS(=O)(=O)c1ccccc1-c1ccc(NC(=O)C2CC(c3ccc(C(F)F)cc3)=NO2)cc1` (configuration not stated) and `Cc1ccc(C2=NOC(C(=O)Nc3ccc(-c4ccccc4S(N)(=O)=O)cc3)C2)cc1` (configuration not stated) are within 1.5-fold of each other in Ki: 1.6 µM for the first, 2.1 µM for the second.

Compared with `NS(=O)(=O)c1ccccc1-c1ccc(NC(=O)C2CC(c3cccc(Br)c3)=NO2)cc1` (configuration not stated), `NS(=O)(=O)c1ccccc1-c1ccc(NC(=O)C2CC(c3cccc(I)c3)=NO2)cc1` (configuration not stated) is lower in Ki: greater than 30 µM for the first, 10 µM for the second.

Compared with `COc1ccc(C2=NOC(C(=O)Nc3ccc(-c4ccccc4S(N)(=O)=O)cc3)C2)cc1` (configuration not stated), `NS(=O)(=O)c1ccccc1-c1ccc(NC(=O)C2CC(c3ccc(O)cc3)=NO2)cc1` (configuration not stated) is 31-fold higher in Ki: 0.7 µM for the first, 22 µM for the second. The first binds more tightly here.

`NS(=O)(=O)c1ccccc1-c1ccc(NC(=O)C2CC(/C=C/c3ccco3)=NO2)cc1` (configuration not stated) and `NS(=O)(=O)c1ccccc1-c1ccc(NC(=O)C2CC(/C=C/c3ccccc3)=NO2)cc1` (configuration not stated) are the same in Ki: 2.3 µM for the first, 2.3 µM for the second.

First: COc1ccc(Br)cc1C1=NOC(C(=O)Nc2ccc(-c3ccccc3S(N)(=O)=O)cc2)C1 (configuration not stated)
Second: NS(=O)(=O)c1ccccc1-c1ccc(NC(=O)C2CC(c3ccc(Cl)cc3Cl)=NO2)cc1 (configuration not stated)
The Ki of the first is higher: greater than 30 µM for the first, 1.7 µM for the second.

`NS(=O)(=O)c1ccccc1-c1ccc(NC(=O)C2CC(c3cc(I)c(O)c(I)c3)=NO2)cc1` (configuration not stated) and `NS(=O)(=O)c1ccccc1-c1ccc(NC(=O)C2CC(c3cccc(C(=O)O)c3)=NO2)cc1` (configuration not stated) cannot be ordered by Ki: greater than 30 µM for the first, greater than 30 µM for the second.

`NS(=O)(=O)c1ccccc1-c1ccc(NC(=O)C2CC(c3ccc4c(c3[N+](=O)[O-])OCO4)=NO2)cc1` (configuration not stated) and `NS(=O)(=O)c1ccccc1-c1ccc(NC(=O)C2CC(c3ccc4c(c3Cl)OCO4)=NO2)cc1` (configuration not stated) are within 1.5-fold of each other in Ki: 2.4 µM for the first, 1.7 µM for the second.

Compared with `NS(=O)(=O)c1ccccc1-c1ccc(NC(=O)C2CC(c3ccc4ccccc4c3)=NO2)cc1` (configuration not stated), `NS(=O)(=O)c1ccccc1-c1ccc(NC(=O)C2CC(c3cccc4ccccc34)=NO2)cc1` (configuration not stated) is higher in Ki: 20 µM for the first, greater than 30 µM for the second. The first binds more tightly here.

Compared with `NS(=O)(=O)c1ccccc1-c1ccc(NC(=O)C2C[C+](c3ccc(Cl)c([N+](=O)[O-])c3)[N-]O2)cc1` (configuration not stated), `NS(=O)(=O)c1ccccc1-c1ccc(NC(=O)C2CC(c3cccs3)=NO2)cc1` (configuration not stated) is lower in Ki: greater than 30 µM for the first, 1.3 µM for the second.

First: CO[C@@H]1[C@H]2OC(C)(C)O[C@H]2O[C@H]1C1=NOC(C(=O)Nc2ccc(-c3ccccc3S(N)(=O)=O)cc2)C1 (some centres not stated)
Second: NS(=O)(=O)c1ccccc1-c1ccc(NC(=O)C2CC(c3ccc4c(c3)OCO4)=NO2)cc1 (configuration not stated)
The Ki of the first is higher: greater than 30 µM for the first, 0.49 µM for the second.

First: NS(=O)(=O)c1ccccc1-c1ccc(NC(=O)C2CC(c3cccc(C(F)(F)F)c3)=NO2)cc1 (configuration not stated)
Second: NS(=O)(=O)c1ccccc1-c1ccc(NC(=O)C2CC(c3c(O)ccc4ccccc34)=NO2)cc1 (configuration not stated)
The Ki of the first is lower: 17 µM for the first, greater than 30 µM for the second.

With `COc1ccc2ccccc2c1C1=NOC(C(=O)Nc2ccc(-c3ccccc3S(N)(=O)=O)cc2)C1` (configuration not stated) the Ki was greater than 3 µM.

Reference: ChEMBL document CHEMBL1136396, “Discovery of 3-amino-4-chlorophenyl P1 as a novel and potent benzamidine mimic via solid-phase synthesis of an isoxazoline library” (Bioorg Med Chem Lett, 2003)
